# Ends that are not written are not given here.
# How the values were obtained:
# [1] = SPR binding to immobilized biotinylated CS-A
# Experimental: (§1) The interaction between Sema3A basic tail and GAGs was analyzed using several methods: chromatographic elution as a function of NaCl concentration based on affinity to a heparin sepharose column, surface plasmon resonance (SPR), NMR [52], and molecular dynamics simulations. Firstly, we observed that SCTWT binds to a heparin-Sepharose column and the protein is only released at about 1M NaCl (>50% of buffer B, Figure 3c), similar to the widely reported antithrombin–heparin interaction, indicating a SCTWT-heparin high-affinity, in the 10^−7–10^−9 M range [54]. Next, SPR measurements were performed to characterize protein–heparin binding kinetics. […]
# (§2) All SPR experiments were performed on a Biacore T-100 instrument (Cytiva, formally GE Healthcare, Marlborough, MA, USA) in HBS-T buffer (10 mM HEPES, 150 mM NaCl, 0.05% Tween-20, pH 7.5) at 25 °C. […] The SPR experiments were performed in duplicate and the dissociation constant (Kd) values and binding levels are expressed as the mean and standard deviation from the individual experiments.
# [2] = Heparin affinity chromatography (NaCl gradient elution); type: binding
# Experimental: Figure 3 SPR sensorgrams of increasing amounts (0 to 1 μM) of the SCTWT construct flown over (HBS-T buffer) (a) immobilized biotinylated heparin (350 RU) (b) CD Spectra of 5 μM Sema3A C-terminal region in the absence (blue) and the presence of 1 μM UFH (orange), measured at pH 5.5 in 10 mM NaP. […] SCTWT was loaded onto a HiTrap Heparin column equilibrated with […] (pH 7.5), and eluted with a linear gradient to 2 M NaCl. Left ordinate axis, absorbance; righ ordinate axis, % NaCl (% B).
# A prepacked 1-mL HiTrap Heparin HP affinity column (GE Healthcare) was used on a AKTA purifier system to perform heparin affinity chromatography. Then, 100 μL of SCT samples at ~100 μM were injected and run at 1 mL/min in a linear gradient with buffer A = 10 mM Tris-HCl, pH = 7.5 and buffer B = 10 mM Tris-HCl, 2M NaCl, pH = 7.5.
# [3] = SPR binding to immobilized biotinylated heparin; settings: Table S3
# Experimental: as §1
# as §2, with “experiments. […]” for “experiments.”
# [4] = NMR competition (WaterLOGSY / spin-lock filtered 1H): displacement of FS2/FS3 peptides from heparin agarose resin; type: binding; settings: pH 7.5; for displacement of FS3 peptide from heparin agarose resin: spin-lock filtered 1D 1H NMR, 1 mM peptide, 1 mM peptoid
# Experimental: NMR competition experiments involved the acquisition of 1D-^1H WaterLOGSY or spin-lock filtered NMR spectra. Thus, FS2 peptide is displaced from heparin agarose resin by CSIC02 (1:1 peptoid/FS2, both 1 mM), but not by CSIC03 (Figure S15). […] We reasoned that if CSIC02 was able to interact with GAG and displace FS2/FS3 basic peptides, it may also interfere with SCTWT–heparin interaction. To investigate if CSIC02 could displace SCTWT from heparin dp14 and to define the SCTWT residues affected, 2D NMR ^1H-^15N HSQC CSP experiments were used. Figure 8a illustrates the chemical shift effects of CSIC02 addition to a sample of SCTWT containing dp14 heparin. […] In Figure 8b, we display the chemical shift perturbation of SCTWT NMR spectra in the presence of dp14 and CSIC02. Thus, as the two CSP plots in Figure 4b and Figure 8b were calculated using as reference SCTWT alone in solution, we can compare them directly. […] Moreover, splitting of signals for some residues (R733, R734, and Q735 in the first GAG-binding region) was observed (Figure 8c). This observation is compatible with the presence of different species in slow chemical exchange in solution, with partial detachment of SCTWT from heparin. The amount of CSIC02 used in these experiments can be rationalized considering that the SCTWT has ca. 12 positive charges at neutral pH (Figure S18), while CSIC02 is tricationic. Since the binding is mediated by ionic polar interactions, a large excess of CSIC02 is needed to counterbalance the SCTWT-dp14 binding.
# Next, 1D ^1H T1ρ relaxation filtered and WaterLOGSY NMR experiments were acquired at 25 °C on a 500-MHz spectrometer (Varian Inova; Agilent Technologies, Santa Clara, CA, USA) equipped with an AutoX inverse double-resonance probe with a z-shielded pulsed-field gradient coil. The samples were prepared in a 5-mm Wilmad NMR 528-PP tubes with 10 mM Tris-d11 (for peptide/GAG samples) and 150 mM NaCl dissolved in 90% H2O/10% D2O at pH 7.5. All spectra were obtained with a sweep width of 8 kHz and 16,384 acquired data points. The experiments were recorded using the standard pulse sequence in the (WLOGSY_ES) Chempack library, with excitation sculpting to suppress water resonances. For Water-LOGSY experiments, the first water-selective 180° pulse was 25 ms long. The spectra were acquired with 1200 transients and a spin-lock pulse of 50 ms at 3.7 kHz. To phase Water-LOGSY spectra correctly, it is necessary to use an internal reference compound. In our case, the reference is the residual ethanol absorbed/bonded in heparin-agarose resin (this interaction was previously confirmed with T1ρ filtered experiments), which appears as a positively phased signal. […]
# [5] = Potentiometric titration (protonation state); type: physicochemical; settings: 25 °C, 0.15 M NaCl
# Experimental: UV absorbance was measured using a SpectraMax M5 spectrophotometer (Molecular Devices, Sunnyvale, CA, USA). The experiments were performed with a 10 μM methylene blue (MB) solution in 5 mM Tris-HCl buffer at pH 7.5, to which increasing amounts of heparin were added to saturation of the MB dye. For the competition assays, solutions of MB and heparin at fixed concentrations were titrated with increasing amounts of SICHI or CSIC02–04 peptoids. Then, the relative increase in absorbance at 665 nm, due to release of MB from the MB–heparin complex when adding either SICHI or CSIC02–04 to the cuvette, can be plotted vs. the charge ratio considering their respective concentrations and that all the peptoids have three positive charges, and heparin has four negative charges per disaccharide unit. With this information, the charge excess for 50% of displacement of the MB dye (CE50) for each compound can be calculated for comparison. Potentiometric titrations were carried out in a reaction vessel thermostated with a water bath at 25.0 ± 0.1 °C under nitrogen atmosphere, and 0.15 M NaCl was used as the supporting electrolyte. The titrant was delivered by a precision microburette. The potentiometric measurements were made with a pH-mV meter. The reference electrode was an Ag/AgCl electrode in saturated KCl solution. The acquisition of the emf data was performed with the computer program Tiamo 2.3.1. […]
# [6] = tested on: Sema3A chemorepulsive activity; design: method as in PMID 19615921; settings: cited from earlier work
# Nrp1 = tested on: Nrp1; design: method as in PMID 27028639; settings: cited from earlier work
# Sema3A = tested on: Sema3A; design: method as in PMID 27028639; settings: cited from earlier work
# [7] = target: the molecule itself; experiment: 1H-15N NMR spectra; 1H-15N NMR spectra of LCTWT acquired without and with reducing agent TCEP; monomer and dimer
molecule,measurement,setting,value
"SCTRR/QH: SCT construct bearing two mutations, R730Q and R733H (VWKRDQKQHRQRPGHTPGNSNKWKHLQENKKGRNRRTHEFERAPRSV; UniProt Q14563 725-771, looked up, variant R730Q R733H)",binding to CS-A,[1]; immobilized biotinylated CS-A,completely abrogated
same,elution of the mutated protein relative to SCTWT,[2]; heparin affinity chromatography,slightly earlier elution
"LCTWT: recombinant Sema3A C-terminal construct 716-771 incorporating the cysteine (NTMDEFCEQVWKRDRKQRRQRPGHTPGNSNKWKHLQENKKGRNRRTHEFERAPRSV; also: post-translational modification of the N-terminus, kind not given here)",NaCl concentration at elution under reducing conditions,[2]; 5 mM DTT,~ 0.92 M NaCl
same,NaCl concentration at elution peak (single or major peak),"[2]; linear gradient to 2 M NaCl, Tris-HCl pH 7.5",~ 1.12 M NaCl
same,NaCl concentration at minor elution peak,"[2]; linear gradient to 2 M NaCl, minor peak (monomeric form)",~ 0.92 M NaCl
"FS2: Sema3A C-terminal peptide 725-736, VWKRDRKQRRQR",fold stronger affinity to heparin compared to NFS3 peptide,[3],60 fold
CCN(CC)CCNCC(=O)N(CCN1CCCC1)CC(=O)NCCC1CCCN1C (stereo not drawn) [CSIC03],displacement of FS2 peptide from heparin agarose resin,"[4]; WaterLOGSY, 1:1 peptoid/FS2, both 1 mM",not
same,displacement of FS3 peptide from heparin agarose resin,[4],incapable to displace
CCN(CC)CCNCC(=O)N(CCN1CCCC1)CC(=O)N(CCC1CCCN1C)CC(N)=O (stereo not drawn) [SICHI],protonation state at neutral pH,[5],triprotonated
same,in vitro effect on Sema3A chemorepulsive activity,[6],inhibition
same,binding to Nrp1,Nrp1,neither Sema3A or Nrp1 bind
same,binding to Sema3A,Sema3A,neither Sema3A or Nrp1 bind
"SCTWT: recombinant Sema3A C-terminal polybasic tail construct, residues 725–771 (VWKRDRKQRRQRPGHTPGNSNKWKHLQENKKGRNRRTHEFERAPRSV; UniProt Q14563 725-771, looked up, fragment)",affinity for heparin versus CS-A,[1]; comparison of heparin and CS-A chips,higher affinity to heparin than to CS-A
CCN(CC)CCN(CC(=O)N(CCN1CCCC1)CC(=O)NCCC1CCCN1C)C(=O)OCc1ccccc1 (stereo not drawn) [CSIC04],displacement of FS3 peptide from heparin agarose resin,[4],incapable to displace
"recombinant Sema3A C-terminal construct incorporating the cysteine (LCTWT, 716-771) (domain or fragment, human, UniProt Q14563 716-771, looked up, also: post-translational modification of the N-terminus, kind not given here, Semaphorin 3A (Sema3A), human, C-terminal region 716-771 with the cysteine (Cys722 as printed) between the Ig domain and the basic tail; The methods say that the SCT constructs were made without any fusion tag in E. coli BL21 (DE3) and purified by cation exchange and reverse phase; source: recombinant) NTMDEFCEQVWKRDRKQRRQRPGHTPGNSNKWKHLQENKKGRNRRTHEFERAPRSV",binding result,[7],binds

# — paper PMC8465649, “Semaphorin 3A—Glycosaminoglycans Interaction as Therapeutic Target for Axonal Regeneration” (Pharmaceuticals, 2021)
